Assays:
PC3 cells = assay: NAMPT Cell Proliferation Assay; format: cell-based; conditions: Homo sapiens, PC-3, 120 h, 5 days incubation, cell viability by Cell Titer Glo
Method in brief: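 Cell Titer Glo viability after 5-day exposure (37° C, 5% CO2); PC3, 500 cells/well, RPMI + 10% heat-inactivated FBS, overnight attachment before dosing. Dose range 10 μM to 1×10^−5 μM, 10-fold steps. IC50 = sigmoidal fit of % inhibition.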

NAMPT = NAMPT (Homo sapiens, UniProt P43490); assay: TR-FRET Binding Assay of NAMPT with PRPP; conditions: with 200 μM PRPP and 2.5 mM ATP; 2 nM NAMPT, 2 nM probe, 16 hours equilibration
Method in brief: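 Run in the presence of substrates (200 μM PRPP, 2.5 mM ATP) with final 2 nM NAMPT, 2 nM probe, 1 nM Tb-anti-His antibody and 2% DMSO. Mixtures equilibrated 16 h before TR-FRET measurement so test compounds could be enzymatically modified.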

[1] = target: NAMPT (human, recombinant, C-terminally His-tagged) (Homo sapiens, UniProt P43490); assay: Time-Resolved Fluorescence Resonance Energy Transfer (TR-FRET) Binding Assay of NAMPT; conditions: without substrates; 6.8 nM NAMPT, 200 nM probe, 3 hours equilibration
Method in brief: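 Probe displacement by compound was measured with 6.8 nM NAMPT, 200 nM Oregon Green 488-conjugated nicotinamide-competitive inhibitor probe and 1 nM Tb-anti-His antibody in 50 mM HEPES pH 7.5, 100 mM NaCl, 10 mM MgCl2, 1 mM DTT, 1% glycerol, 2% DMSO (final). After 3 h at room temperature, TR-FRET was read; IC50 from four-parameter logistic fit.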

activated T cells = conditions: Busso et al. 2008; cited from earlier work
[2] = test system: collagen induced arthritis; conditions: Busso et al. 2008; cited from earlier work
[3] = test system: experimental autoimmune encephalomyelitis (EAE); conditions: model of T-cell mediated autoimmune disorders, Bruzzone et al. 2009; cited from earlier work

Sequence of NAMPT (P43490 whole entry): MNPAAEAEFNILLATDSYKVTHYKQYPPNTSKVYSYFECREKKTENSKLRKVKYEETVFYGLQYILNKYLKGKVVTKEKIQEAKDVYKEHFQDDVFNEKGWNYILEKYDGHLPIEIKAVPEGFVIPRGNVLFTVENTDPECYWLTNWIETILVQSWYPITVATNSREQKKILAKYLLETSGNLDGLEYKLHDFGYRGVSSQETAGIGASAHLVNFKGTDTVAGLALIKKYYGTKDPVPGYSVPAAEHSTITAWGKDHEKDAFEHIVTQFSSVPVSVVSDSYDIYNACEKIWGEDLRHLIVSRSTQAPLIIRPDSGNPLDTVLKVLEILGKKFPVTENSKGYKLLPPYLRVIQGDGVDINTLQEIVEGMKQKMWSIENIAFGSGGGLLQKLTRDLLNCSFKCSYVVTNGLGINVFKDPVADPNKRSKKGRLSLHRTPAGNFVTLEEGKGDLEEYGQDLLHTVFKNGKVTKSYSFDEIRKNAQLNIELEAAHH
Sequence of NAMPT (human, recombinant, C-terminally His-tagged) (P43490 whole entry): as above

| Compound | IC50 (PC3 cells) | IC50 (NAMPT) | IC50 [1] | apoptosis of activated T cells (activated T cells) | proliferation of activated T cells (activated T cells) | efficacy in animal models of arthritis [2] | manifestations of experimental autoimmune encephalomyelitis [3] |
| --- | --- | --- | --- | --- | --- | --- | --- |
| O=C(NCc1ccc2ncnn2c1)c1ccc(-c2cnn(CC3(F)CCOCC3)c2)o1 [Example 810, 5-{1-[(4-fluorotetrahydro-2H-pyran-4-yl)methyl]-1H-pyrazol-4-yl}-N-([1,2,4]triazolo[1,5-a]pyridin-6-ylmethyl)furan-2-carboxamide] | 327 nM | 12.6 nM | 481 nM | – | – | – | – |
| CC(C)C(=O)N1CCC(c2ccc(C(=O)NCc3cn4ccnc4cn3)cc2)CC1 [Example 811, N-(imidazo[1,2-a]pyrazin-6-ylmethyl)-4-[1-(2-methylpropanoyl)piperidin-4-yl]benzamide] | 11.4 nM | 2.86 nM | 99.8 nM | – | – | – | – |
| CC(C)CC(=O)N1CCC(c2ccc(C(=O)NCc3cn4ccnc4cn3)cc2)CC1 [Example 816, N-(imidazo[1,2-a]pyrazin-6-ylmethyl)-4-[1-(3-methylbutanoyl)piperidin-4-yl]benzamide] | 4.82 nM | 1.58 nM | 46.1 nM | – | – | – | – |
| CC(C)S(=O)(=O)N1CCC(c2ccc(C(=O)NCc3cn4ccnc4cn3)cc2)CC1 [Example 817, N-(imidazo[1,2-a]pyrazin-6-ylmethyl)-4-[1-(propan-2-ylsulfonyl)piperidin-4-yl]benzamide] | 9.27 nM | 1.6 nM | 65.8 nM | – | – | – | – |
| CC(C)Cn1cc(-c2ccc(C(=O)NCc3cn4ccnc4cn3)o2)cn1 [Example 819, N-(imidazo[1,2-a]pyrazin-6-ylmethyl)-5-[1-(2-methylpropyl)-1H-pyrazol-4-yl]furan-2-carboxamide] | 13 nM | 0.624 nM | 19.9 nM | – | – | – | – |
| CC(C)Cn1cc(-c2ccc(C(=O)NCc3ccc4ncnn4c3)o2)cn1 [Example 820, 5-[1-(2-methylpropyl)-1H-pyrazol-4-yl]-N-([1,2,4]triazolo[1,5-a]pyridin-6-ylmethyl)furan-2-carboxamide] | 802 nM | 9.28 nM | 499 nM | – | – | – | – |
| CC(C)CC1CCCN1C(=O)c1ccc(C(=O)NCc2ccn3ccnc3c2)s1 (stereo not shown) [Example 824, N-(imidazo[1,2-a]pyridin-7-ylmethyl)-5-{[2-(2-methylpropyl)pyrrolidin-1-yl]carbonyl}thiophene-2-carboxamide] | 12.4 nM | 0.566 nM | 118 nM | – | – | – | – |
| CC(C)(C)Cn1cc(-c2ccc(C(=O)NCc3ccn4ccnc4c3)o2)cn1 [Example 825, 5-[1-(2,2-dimethylpropyl)-1H-pyrazol-4-yl]-N-(imidazo[1,2-a]pyridin-7-ylmethyl)furan-2-carboxamide] | 1.06 nM | 0.538 nM | 26.1 nM | – | – | – | – |
| O=C(NCc1cn2ccnc2cn1)c1ccc(C2CCN(C(=O)c3ccccc3F)CC2)cc1 [Example 826, 4-[1-(2-fluorobenzoyl)piperidin-4-yl]-N-(imidazo[1,2-a]pyrazin-6-ylmethyl)benzamide] | 6.79 nM | 0.897 nM | 7.79 nM | – | – | – | – |
| O=C(/C=C/c1cccnc1)NCCCCC1CCN(C(=O)c2ccccc2)CC1 [FK866] | – | – | – | induce apoptosis | selectively block proliferation | efficacious | ameliorated the manifestations |

More lines, in order of falling IC50 (PC3 cells), values ahead:

| IC50 (PC3 cells) | IC50 (NAMPT) | IC50 [1] | Compound | apoptosis of activated T cells (activated T cells) | proliferation of activated T cells (activated T cells) | efficacy in animal models of arthritis [2] | manifestations of experimental autoimmune encephalomyelitis [3] |
| --- | --- | --- | --- | --- | --- | --- | --- |
| 716 nM | 0.644 nM | 1520 nM | CC(C)Cn1nccc1-c1ccc(C(=O)NCc2ccn3ccnc3c2)o1 [Example 818, N-(imidazo[1,2-a]pyridin-7-ylmethyl)-5-[1-(2-methylpropyl)-1H-pyrazol-5-yl]furan-2-carboxamide] | – | – | – | – |
| 192 nM | 0.284 nM | 663 nM | CC(C)CCn1nccc1-c1ccc(C(=O)NCc2ccn3ccnc3c2)o1 [Example 821, N-(imidazo[1,2-a]pyridin-7-ylmethyl)-5-[1-(3-methylbutyl)-1H-pyrazol-5-yl]furan-2-carboxamide] | – | – | – | – |
| 71.1 nM | 3.46 nM | 104 nM | CC1(Cn2cc(-c3ccc(C(=O)NCc4ccc5ncnn5c4)o3)cn2)CCOCC1 [Example 822, 5-{1-[(4-methyltetrahydro-2H-pyran-4-yl)methyl]-1H-pyrazol-4-yl}-N-([1,2,4]triazolo[1,5-a]pyridin-6-ylmethyl)furan-2-carboxamide] | – | – | – | – |
| 38.8 nM | 2.57 nM | 80 nM | O=C(NCc1cn2ccnc2cn1)c1ccc(C2CCN(C(=O)c3ccc(F)cc3)CC2)cc1 [Example 812, 4-[1-(4-fluorobenzoyl)piperidin-4-yl]-N-(imidazo[1,2-a]pyrazin-6-ylmethyl)benzamide] | – | – | – | – |
| 33.2 nM | 0.63 nM | 95.3 nM | O=C(NCc1ccn2ccnc2c1)c1ccc(-c2cnn(CCN3CCNCC3)c2)s1 [Example 809, N-(imidazo[1,2-a]pyridin-7-ylmethyl)-5-{1-[2-(piperazin-1-yl)ethyl]-1H-pyrazol-4-yl}thiophene-2-carboxamide] | – | – | – | – |
| 5.89 nM | 1.93 nM | 53 nM | O=C(NCc1cn2ccnc2cn1)c1ccc(C2CCN(C(=O)CC(F)(F)F)CC2)cc1 [Example 815, N-(imidazo[1,2-a]pyrazin-6-ylmethyl)-4-[1-(3,3,3-trifluoropropanoyl)piperidin-4-yl]benzamide] | – | – | – | – |
| 4.62 nM | 0.356 nM | 189 nM | COC[C@H]1CCCN1C(=O)c1ccc(C(=O)NCc2ccn3ccnc3c2)s1 [Example 823, N-(imidazo[1,2-a]pyridin-7-ylmethyl)-5-{[(2R)-2-(methoxymethyl)pyrrolidin-1-yl]carbonyl}thiophene-2-carboxamide] | – | – | – | – |
| 4.5 nM | 1.63 nM | 68.7 nM | CC1(C(=O)N2CCC(c3ccc(C(=O)NCc4cn5ccnc5cn4)cc3)CC2)CC1 [Example 814, N-(imidazo[1,2-a]pyrazin-6-ylmethyl)-4-{1-[(1-methylcyclopropyl)carbonyl]piperidin-4-yl}benzamide] | – | – | – | – |
| 2.21 nM | 1.53 nM | 11.2 nM | O=C(NCc1cn2ccnc2cn1)c1ccc(C2CCN(C(=O)c3cc(F)ccc3F)CC2)cc1 [Example 813, 4-[1-(2,5-difluorobenzoyl)piperidin-4-yl]-N-(imidazo[1,2-a]pyrazin-6-ylmethyl)benzamide] | – | – | – | – |
| 1.1 nM | 0.568 nM | 94.4 nM | CC(C)(C)OC(=O)N1CCN(CCn2cc(-c3ccc(C(=O)NCc4ccn5ccnc5c4)s3)cn2)CC1 [Example 808, tert-butyl 4-[2-(4-{5-[(imidazo[1,2-a]pyridin-7-ylmethyl)carbamoyl]thiophen-2-yl}-1H-pyrazol-1-yl)ethyl]piperazine-1-carboxylate] | – | – | – | – |

Source: patent US9187472B2 (AbbVie Inc., priority 2012, dated 2015)
